Experimental data published in publication PMC9105583, “Stereoselective Synthesis and Anticancer Activity of 2,6-Disubstituted trans-3-Methylidenetetrahydropyran-4-ones” (Materials, 2022).
Like-named read-outs stand apart in the source and are kept apart here.

Key:
HL-60 cells = assay: MTT assay, metabolic activity (cytotoxicity); format: cell-based, human; conditions: for IC50: 48 h incubation, MTT, mean ± SEM, read-out: IC50 HL-60
Method: (§1) Metabolic activity by MTT assay
(§2) The MTT (3-([…])-2,5-diphenyl tetrazolium bromide) assay was performed to assess the cytotoxicity of the investigated compounds. Briefly, HL-60, MCF-7 and HUVEC cells were seeded in 24-well plates at density of 8 × 10^4/mL. After 24 h incubation, cells were treated with various concentrations of the compounds and incubated for another 24 h or 48 h. Then, the cells were incubated with MTT solution (100 µL; 5 mg/mL in PBS) for 1.5 h and centrifuged. The formazan product was dissolved in DMSO, and the absorption was measured using FlexStation 3 Multi-Mode Microplate Reader (Molecular Devices, LLC, San Jose, CA, USA) at 560 nm. Assays were performed twice in triplicate for each analog.
(§3) The cytotoxic activity of the obtained methylidenetetrahydropyran-4-ones was investigated in two cancer cell lines, human promyelocytic leukemia (HL-60) and breast cancer adenocarcinoma (MCF-7), and in healthy umbilical vein endothelial cells (HUVEC), for comparison. An anticancer drug, carboplatin, was used as a reference compound. Metabolic activity of the cells was assessed after 48 h incubation with various concentrations of the analogs (Table 6). Purity of all final compounds was determined on the basis of their ^1H NMR spectra (signal-to-noise ratio and presence of unidentified signals) and was at least 98%, in most cases even over 99%.

MCF-7 cells = assay: MTT assay, metabolic activity (cytotoxicity); format: cell-based, human; conditions: mean ± SEM
Method: as §1, §2, §3

HUVEC cells = assay: MTT assay, metabolic activity (cytotoxicity), normal cell line; format: cell-based, human; conditions: 48 h incubation, mean ± SEM
Method: as §1, §2, §3

[1] = system: human cancer cell lines, including lymphoid leukemia L1210 and leukemia P388; design: method as in PMID 3693116; conditions: cited from earlier work
[2] = system: Ehrlich ascites carcinoma; design: method as in PMID 3693116; conditions: cited from earlier work
[3] = system: HL-60 human leukemia cells; design: method as in PMID 32019209; conditions: cited from earlier work
[4] = system: mouse lymphocytic leukemia cells (L1210); design: method as in PMID 18078344; conditions: cited from earlier work
[5] = Stability of the compound at room temperature; format: physicochemical
Method: Next, we made an attempt to transform the obtained 2-substituted-5-diethoxyphosphoryltetrahydropyran-4-ones 14a-d into target 2-substituted-5-methylidenetetrahydropyran-4-ones 15a-d, using Horner–Wadsworth–Emmons olefination. The reaction was carried out with 2 equivalents of K2CO3, 10 equivalents of formalin, THF as a solvent and room temperature for 3 h. Unfortunately, the obtained 3-methylidenetetrahydropyran-4-ones 15a-c,e, turned out to be unstable at room temperature and decomposed during column chromatography.

[6] = Homo sapiens, MCF7, 48 h incubation

| Compound | IC50 (HL-60 cells) | IC50 (HL-60 cells; Homo sapiens, HL-60, 48 h) | IC50 (MCF-7 cells; [6]) | other results |
| --- | --- | --- | --- | --- |
| C=C1C(=O)C[C@H]([c-]2cccc2)O[C@H]1c1ccccc1.[Fe+2].c1cc[cH-]c1 (relative stereo) [Analog 13o, Trans-6-ferrocenyl-3-methylidene-2-phenyltetrahydro-4H-pyran-4-one] | > 100 µM |  |  | IC50 (MCF-7 cells; 48 h incubation): > 100 µM |
| C=C1C(=O)C[C@H](c2ccccc2)O[C@H]1c1ccccc1 (relative stereo) [Analog 13i, Trans-3-methylidene-2,6-diphenyltetrahydro-4H-pyran-4-one] |  | 36 ± 1.41 µM | > 200 µM |  |
| C=C1C(=O)C[C@H]([c-]2cccc2)O[C@H]1C(C)C.[Fe+2].c1cc[cH-]c1 (relative stereo) [Analog 13m, Trans-6-ferrocenyl-2-isopropyl-3-methylidenetetrahydro-4H-pyran-4-one] | 3.87 ± 0.16 µM |  |  | IC50 (MCF-7 cells; 48 h incubation): 5.73 ± 0.36 µM |
| C=C1C(=O)C[C@H](c2ccc(OC)cc2)O[C@H]1C(C)C (relative stereo) [Analog 13j, Trans-2-isopropyl-6-(4-methoxyphenyl)-3-methylidenetetrahydro-4H-pyran-4-one] | 3.75 ± 0.07 µM | < 4 µM | 9.11 ± 0.02 µM | IC50 (HUVEC cells; Homo sapiens, HUVEC): 4.25 ± 0.05 µM |
| C=C1C(=O)[C@]2(C)C(=O)O[C@@]34C[C@H](C)C(C(=O)O)=C[C@@H]3CCC[C@@H](C)C[C@@H](C)[C@H]1OC24 (single isomer, unassigned; (+)) [(+)-okilactomycin] |  |  |  | in vitro cytotoxicity [1]: exhibits in vitro cytotoxicity; in vivo activity [2]: in vivo activity |
| C=C1C(=O)C[C@H](CC)O[C@H]1C(C)C (relative stereo) [Analog 13a, Trans-6-ethyl-2-isopropyl-3-methylidenetetrahydro-4H-pyran-4-one] |  | 21.3 ± 1 µM | 20.4 ± 0.35 µM |  |
| C=C1C(=O)C[C@H](CC)O[C@H]1CCCC (relative stereo) [Analog 13b, Trans-2-butyl-6-ethyl-3-methylidenetetrahydro-4H-pyran-4-one] |  | 39.15 ± 0.15 µM | 106.5 ± 0.5 µM |  |
| C=C1C(=O)C[C@H](c2ccc(OC)cc2)O[C@H]1CCCC (relative stereo) [Analog 13k, Trans-2-butyl-6-(4-methoxyphenyl)-3-methylidenetetrahydro-4H-pyran-4-one] |  | > 100 µM | > 100 µM |  |
| C=C1C(=O)C[C@H](C(C)C)O[C@H]1c1ccccc1 (relative stereo) [Analog 13f, Trans-6-isopropyl-3-methylidene-2-phenyltetrahydro-4H-pyran-4-one] |  | 8.45 ± 0.05 µM | 69.7 ± 2.16 µM | IC50 (HUVEC cells; Homo sapiens, HUVEC): 11.9 ± 2.32 µM |
| C=C1C(=O)C[C@H](C(C)C)O[C@H]1CCCC (relative stereo) [Analog 13e, Trans-2-butyl-6-isopropyl-3-methylidenetetrahydro-4H-pyran-4-one] |  | 78.8 ± 5.25 µM | > 150 µM |  |
| C=C1C(=O)CC(C)(C)OC1C(C)C (stereo not drawn) [6-isopropyl-2,2-dimethyl-5-methylidenetetrahydropyran-4-one] |  |  |  | apoptosis [3]: induced apoptosis; cell cycle [3]: arrest of the cell cycle in the G2/M phase; cytotoxic activity [3]: very high cytotoxic activity |
| C[C@H]1CCC/C=C\[C@H]2C=C[C@H](O)[C@H](CC(=O)O1)O2 [aspergillide C] |  |  |  | cytotoxic activity [4]: showed cytotoxic activity |
| Trans-2-buthyl-6-ferrocenyl-3-methylidenetetrahydro-4H-pyran-4-one [Analog 13n] | 62.6 ± 0.61 µM |  |  | IC50 (MCF-7 cells; 48 h incubation): > 100 µM |
| C=C1COC(c2ccc(OC)cc2)CC1=O (stereo not drawn) [Analog 15d, 2-(4-Methoxyphenyl)-5-methylidenetetrahydro-4H-pyran-4-one] |  | 163 ± 7.07 µM | > 200 µM | cytotoxic activity (HL-60 cells; HL-60 and MCF-7, 48 h): practically inactive; stable for a prolonged period of time [5]: at least 7 days |
| C=C1C(=O)C[C@H](c2ccc(OC)cc2)O[C@H]1c1ccccc1 (relative stereo) [Analog 13l, Trans-6-(4-methoxyphenyl)-3-methylidene-2-phenyltetrahydro-4H-pyran-4-one] |  | 25 ± 0.94 µM | 203 ± 56 µM |  |
| C=C1C(=O)C[C@H](CC)O[C@H]1c1ccccc1 (relative stereo) [Analog 13c, Trans-6-ethyl-3-methylidene-2-phenyltetrahydro-4H-pyran-4-one] |  | 11.8 ± 0.15 µM | 36 ± 0.41 µM |  |
| N.N.O=C([O-])C1(C(=O)[O-])CCC1.[Pt+2] [Carboplatin, carboplatin, reference compound] | 2.53 ± 0.2 µM |  |  | IC50 (MCF-7 cells; 48 h incubation): 3.76 ± 0.35 µM; IC50 (HUVEC cells): 5.35 ± 0.05 µM |
| C=C1C(=O)C[C@H](c2ccccc2)O[C@H]1CCCC (relative stereo) [Analog 13h, Trans-2-buthyl-3-methylidene-6-phenyltetrahydro-4H-pyran-4-one] | 134 ± 1 µM |  |  | IC50 (MCF-7 cells; 48 h incubation): > 150 µM |
